Experimental data from US9006517B2, “Methods and compositions for plant pest control” (Monsanto Technology LLC, priority 2008, dated 2015).
In brackets after ≈: the same amount, converted by molar mass. Where two headings read alike, the source gives them in different places.

How the values were obtained:
[1] = system: M. incognita pre-parasitic J2 larvae; test: In vitro nematicidal efficacy of methylketones on M. incognita J2 larvae; type: cell-based; conditions: Meloidogyne incognita, read-out: IC30 M. incognita vs. J2
Description: (§1) The example illustrates the surprising nematicidal efficacy of various methylketones. Methylketones of various chain lengths were tested in vitro against C. elegans L1 and L4 larvae and M. incognita pre-parasitic J2 larvae, the dispersal larval stage found in the soil. […] IC30 is defined as the concentration of the methylketone at which 30 percent of the nematodes are killed after an exposure of 4 hours for C. elegans and 24 hours for M. incognita.

[2] = system: soybean cyst nematode (H. glycines); test: Greenhouse whole plant assay, soybean cyst nematode infection of soybean; type: in vivo; conditions: for % Control: relative to the non-treated; for #cysts/plant: soil drench prior to inoculation, harvest 28 days, no compound added: 49
Description: (§2) Whole plant assays were used to determine the efficacy of the methylketones on the infection of soybean plants and tomato plants by nematodes, H. glycines and M. incognita, respectively. The seeds were planted in 100 percent sand in two-inch square plastic pots and grown to a sufficient size for treatment. […] Following methylketone treatment, nematodes were inoculated into each pot and for soybeans are then incubated for 28 days before harvest and for tomatoes incubated 21 days before harvest.
(§3) To each of four pots, five milliliters of the appropriate chemical solution is applied to the surface making sure to avoid contact with the base of the plant. Immediately following the chemical application, the pot surface is wetted sufficiently to water in the chemical. One milligram of chemical per four pots is approximately equivalent to one kilogram per hectare of chemical. A standard test uses four replications. For rates above 2 kg/ha, the desired amount of chemical is weighed into a 30 ml vial (example: 8 kg/ha rate=8 mg chemical in 30 ml vial). The chemical is dissolved in 2 ml of an appropriate solvent, generally acetone. For rates below 2 kg/ha, 2 milligrams of chemistry is weighed into the vial and dissolved in 2 ml of the solvent. The appropriate amount of chemical concentrate is then applied into a separate 30 ml vial and solvent is added to bring the volume to 2 ml (example 0.5 kg/ha=0.5 ml of concentrate+1.5 ml solvent). Each dissolved concentrate is then brought to a total of 20 milliliters using 0.05% Triton X-100 surfactant solution.
(§4) Nematode eggs, either SCN or RKN, are added to distilled water to create a concentration of 1000 vermiform eggs per […] of water. At least four hours after chemical treatment the eggs are applied to the treated pots plus non-treated check plants. A small hole about 1 cm deep is punched into the pot surface. One milliliter of the nematode egg slurry is applied into the hole. Immediately afterwards the hole is gently covered. Watering of the test plants is then restricted to a minimum volume needed to prevent wilting for a period of 24 hours. After the 24 hour restricted watering, normal sub-irrigation watering is done for the duration of the test.
2-tridecanone was also assayed in the greenhouse for control of soybean cyst nematode (H. glycines) in soybeans (Table 3). Nematode control (#cysts/plant) is observed at 40 kg/ha (96% control relative to the non-treated) and 8 kg/ha (80% control relative to the non-treated) when 2-tridecanone was applied as a soil drench prior to nematode inoculation.

[3] = system: root knot nematode (M. incognita); test: Greenhouse whole plant assay, root knot nematode infection of tomato in sand; type: in vivo; conditions: for % Control: control of nematode-induced galling; for % Galled Roots: soil application before inoculation, harvest 21 days, no compound added: 60; for nematode control (in words): M. incognita, greenhouse, 40 and 8 kg/ha
Description: as §2, §3, §4
The 2-undecanone, 2-tridecanone, and 2-pentadecanone are tested in greenhouse studies against M. incognita infection of tomato roots in sand. […] Shown in Table 2 is a high level of nematicidal activity of various methylketones observed against root knot nematode (M. incognita) inoculated into treated pots containing tomato plants. […] The listed kilograms/hectare (kg/ha) rating is based upon the surface area of the test pots; 1 kg/ha equates to about 1.65 mg compound per kilogram of soil in these assays.

[4] = system: C. elegans L1 and L4 larvae; test: In vitro nematicidal efficacy of methylketones on C. elegans larvae; type: cell-based; conditions: Caenorhabditis elegans
Description: as §1

[5] = concentration at which 30 percent of the nematodes are killed, exposure 24 hours, J2 larvae
[6] = concentration at which 30 percent of the nematodes are killed, exposure 4 hours, L1 larvae, read-out: IC30 C. elegans vs. L1
[7] = concentration at which 30 percent of the nematodes are killed, exposure 4 hours, L4 larvae, read-out: IC30 C. elegans vs. L4

SMILES	IC30 [1, 5]	% Control ([2]; rate 8 kg/ha)	#cysts/plant ([2]; rate 8 kg/ha)	% Control ([2]; rate 40 kg/ha)	#cysts/plant ([2]; rate 40 kg/ha)	% Control ([3]; rate 8 kg/ha)	% Galled Roots ([3]; rate 8 kg/ha)	% Control ([3]; rate 40 kg/ha)	% Galled Roots ([3]; rate 40 kg/ha)	IC30 [4, 6]	IC30 [4, 7]	nematode control (in words) [3]	IC30 ([1]; 24 h)	IC30 ([4]; 4 h, read-out: IC30 C. elegans vs. L1)	IC30 ([4]; 4 h, read-out: IC30 C. elegans vs. L4)
CCCCCCCCCCCC(C)=O [2-tridecanone]	50 µg/mL (≈ 252 µM)	80%	10	96%	2	97%	2%	100%	0%	3.2 µg/mL (≈ 16.1 µM)	12.5 µg/mL (≈ 63 µM)	–	–	–	–
CCCCCCCC(C)=O [2-nonanone]	200 µg/mL (≈ 1410 µM)	–	–	–	–	–	–	–	–	12.5 µg/mL (≈ 87.9 µM)	> 400 µg/mL	–	–	–	–
CCCCCCCCCCCCCC(C)=O [2-pentadecanone]	400 µg/mL (≈ 1770 µM)	–	–	–	–	25%	45%	37%	38%	12.5 µg/mL (≈ 55.2 µM)	> 100 µg/mL	demonstrated nematode control	–	–	–
CCCCCC(C)=O [2-heptanone]	400 µg/mL (≈ 3500 µM)	–	–	–	–	–	–	–	–	> 400 µg/mL	> 400 µg/mL	–	–	–	–
CCCCCCCCC(C)=O [2-decanone]	25 µg/mL (≈ 160 µM)	–	–	–	–	–	–	–	–	6.3 µg/mL (≈ 40.3 µM)	> 400 µg/mL	–	–	–	–
CCCCCCCCCCCCC(C)=O [2-tetradecanone]	25 µg/mL (≈ 118 µM)	–	–	–	–	–	–	–	–	3.2 µg/mL (≈ 15.1 µM)	> 100 µg/mL	–	–	–	–
CCCCCCCCCCC(C)=O [2-dodecanone]	50 µg/mL (≈ 271 µM)	–	–	–	–	–	–	–	–	3.2 µg/mL (≈ 17.4 µM)	25 µg/mL (≈ 136 µM)	–	–	–	–
CCCCCCCCCC(C)=O [2-undecanone]	–	–	–	–	–	35%	39%	65%	21%	–	–	demonstrated nematode control	50 µg/mL (≈ 294 µM)	6.3 µg/mL (≈ 37 µM)	25 µg/mL (≈ 147 µM)
